# Results from PMC8793051 (ACS Omega, 2022).
# pIC50: −log10 of the molar value.
# Experiments:
# [1] = test system: oligo-1: d(CGCGAATTCGCG)2; assay: UV thermal denaturation; assay type: binding
# [2] = test system: HEK; assay: MTT cytotoxicity assay; assay type: cell-based; conditions: Homo sapiens, HEK293, 48 h
# [3] = test system: CCRF-CEM; assay: NCI-60 SRB growth assay; assay type: cell-based, human
# [4] = test system: MOLT-4; assay: NCI-60 SRB growth assay; assay type: cell-based, human
# [5] = test system: RPMI-8226; assay: NCI-60 SRB growth assay; assay type: cell-based, human
# [6] = test system: SR; assay: NCI-60 SRB growth assay; assay type: cell-based, human; conditions: Homo sapiens
# [7] = test system: HOP-92; assay: NCI-60 SRB growth assay; assay type: cell-based, human
# [8] = test system: NCI-H226; assay: NCI-60 SRB growth assay; assay type: cell-based, human
# [9] = test system: NCI-H23; assay: NCI-60 SRB growth assay; assay type: cell-based, human
# [10] = test system: NCI-H522; assay: NCI-60 SRB growth assay; assay type: cell-based, human
# [11] = test system: COLO 205; assay: NCI-60 SRB growth assay; assay type: cell-based, human
# [12] = test system: HCT-116; assay: NCI-60 SRB growth assay; assay type: cell-based, human
# [13] = test system: HCT-15; assay: NCI-60 SRB growth assay; assay type: cell-based, human
# [14] = test system: HT29; assay: NCI-60 SRB growth assay; assay type: cell-based, human
# [15] = test system: KM12; assay: NCI-60 SRB growth assay; assay type: cell-based, human
# [16] = test system: SW-620; assay: NCI-60 SRB growth assay; assay type: cell-based, human
# [17] = test system: SF-268; assay: NCI-60 SRB growth assay; assay type: cell-based, human
# [18] = test system: SF-295; assay: NCI-60 SRB growth assay; assay type: cell-based, human
# [19] = test system: LOX IMVI; assay: NCI-60 SRB growth assay; assay type: cell-based, human
# [20] = test system: UACC-257; assay: NCI-60 SRB growth assay; assay type: cell-based, human
# [21] = test system: UACC-62; assay: NCI-60 SRB growth assay; assay type: cell-based, human
# [22] = test system: OVCAR-4; assay: NCI-60 SRB growth assay; assay type: cell-based, human
# [23] = test system: NCI/ADR-RES; assay: NCI-60 SRB growth assay; assay type: cell-based, human
# [24] = test system: 786-0; assay: NCI-60 SRB growth assay; assay type: cell-based, human
# [25] = test system: A498; assay: NCI-60 SRB growth assay; assay type: cell-based, human
# [26] = test system: ACHN; assay: NCI-60 SRB growth assay; assay type: cell-based, human
# [27] = test system: RXF 393; assay: NCI-60 SRB growth assay; assay type: cell-based, human
# [28] = test system: SN12C; assay: NCI-60 SRB growth assay; assay type: cell-based, human
# [29] = test system: UO-31; assay: NCI-60 SRB growth assay; assay type: cell-based, human
# [30] = test system: DU-145; assay: NCI-60 SRB growth assay; assay type: cell-based, human
# [31] = test system: MCF7; assay: NCI-60 SRB growth assay; assay type: cell-based, human
# [32] = test system: MDA-MB-231/ATCC; assay: NCI-60 SRB growth assay; assay type: cell-based, human
# [33] = test system: MDA-MB-468; assay: NCI-60 SRB growth assay; assay type: cell-based, human
smiles,measurement,setting,value
"CCCN1CCN(c2ccc3[nH]c(-c4ccc5[nH]c(-c6ccc(OCC)c(OCC)c6)nc5c4)nc3c2)CC1 [11a, 2-(2-(3,4-Diethoxyphenyl)-1H-benzo[d]imidazol-5-yl)-5-(4-propylpiperazin-1-yl)-1H-benzo[d]imidazole]",ΔTm,[1]; r = 0.5,3 °C
same,Tm,"[1]; r = 0.5, oligo 2.5 μM",57.7 °C
same,Tm,[1]; r = 1,58.7 °C
same,ΔTm,[1]; r = 1,4 °C
same,Tm,[1]; r = 1.5,60.7 °C
same,ΔTm,[1]; r = 1.5,6 °C
same,Tm,[1]; r = 2.0,62.7 °C
same,ΔTm,[1]; r = 2.0,8 °C
same,pIC50,[2],4.84
same,TGI,[3],3600 nM
same,GI50,[3]; Homo sapiens,400 nM
same,CC50,"[3]; Homo sapiens, read-out: LC50",> 100000 nM
same,GI50,"[4]; Homo sapiens, MOLT-4",590 nM
same,CC50,"[4]; Homo sapiens, MOLT-4, read-out: LC50",> 100000 nM
same,TGI,[4]; MOLT-4,4400 nM
same,GI50,"[5]; Homo sapiens, RPMI-8226",470 nM
same,CC50,"[5]; Homo sapiens, RPMI-8226, read-out: LC50",> 100000 nM
same,TGI,[5]; RPMI-8226,2500 nM
same,GI50,[6],290 nM
same,CC50,[6]; read-out: LC50,> 100000 nM
same,TGI,[7]; HOP-92,4500 nM
same,GI50,"[7]; Homo sapiens, HOP-92",1200 nM
same,CC50,"[7]; Homo sapiens, HOP-92, read-out: LC50",26300 nM
same,GI50,"[8]; Homo sapiens, NCI-H226",800 nM
same,CC50,"[8]; Homo sapiens, NCI-H226, read-out: LC50",37500 nM
same,TGI,[8]; NCI–H226,3500 nM
same,GI50,"[9]; Homo sapiens, NCI-H23",250 nM
same,CC50,"[9]; Homo sapiens, NCI-H23, read-out: LC50",4240 nM
same,TGI,[9]; NCI–H23,700 nM
same,GI50,"[10]; Homo sapiens, NCI-H522",450 nM
same,TGI,[10]; NCI–H522,2110 nM
same,TGI,[11]; COLO 205,1290 nM
same,GI50,"[11]; Homo sapiens, COLO 205",160 nM
same,CC50,"[11]; Homo sapiens, COLO 205, read-out: LC50",5400 nM
same,TGI,[12]; HCT-116,1230 nM
same,GI50,"[12]; Homo sapiens, HCT-116",240 nM
same,CC50,"[12]; Homo sapiens, HCT-116, read-out: LC50",4700 nM
same,TGI,[13]; HCT-15,18900 nM
same,GI50,"[13]; Homo sapiens, HCT-15",2420 nM
same,CC50,"[13]; Homo sapiens, HCT-15, read-out: LC50",> 100000 nM
same,TGI,[14]; HT29,2300 nM
same,GI50,"[14]; Homo sapiens, HT-29",450 nM
same,CC50,"[14]; Homo sapiens, HT-29, read-out: LC50",> 100000 nM
same,GI50,"[15]; Homo sapiens, KM12",1260 nM
same,CC50,"[15]; Homo sapiens, KM12, read-out: LC50",6400 nM
same,TGI,[15]; KM12,2800 nM
same,GI50,"[16]; Homo sapiens, SW-620",300 nM
same,CC50,"[16]; Homo sapiens, SW-620, read-out: LC50",4300 nM
same,TGI,[16]; SW620,1200 nM
same,GI50,"[17]; Homo sapiens, SF-268",1900 nM
same,CC50,"[17]; Homo sapiens, SF-268, read-out: LC50",68800 nM
same,TGI,[17]; SF-268,11500 nM
same,GI50,"[18]; Homo sapiens, SF-295",500 nM
same,CC50,"[18]; Homo sapiens, SF-295, read-out: LC50",7800 nM
same,TGI,[18]; SF-265,2300 nM
same,TGI,[19],440 nM
same,GI50,[19]; Homo sapiens,200 nM
same,CC50,"[19]; Homo sapiens, read-out: LC50",960 nM
same,GI50,"[20]; Homo sapiens, UACC-257",790 nM
same,CC50,"[20]; Homo sapiens, UACC-257, read-out: LC50",9400 nM
same,TGI,[20]; UACC-257,2800 nM
same,GI50,"[21]; Homo sapiens, UACC-62",400 nM
same,CC50,"[21]; Homo sapiens, UACC-62, read-out: LC50",5300 nM
same,TGI,[21]; UACC-62,1900 nM
same,GI50,"[22]; Homo sapiens, OVCAR-4",690 nM
same,CC50,"[22]; Homo sapiens, OVCAR-4, read-out: LC50",9500 nM
same,TGI,[22]; OVCAR-4,2800 nM
same,TGI,[23],>100000 nM
same,GI50,[23]; Homo sapiens,> 100000 nM
same,CC50,"[23]; Homo sapiens, read-out: LC50",> 100000 nM
same,TGI,[24]; 786–0,2500 nM
same,GI50,"[24]; Homo sapiens, 786-0",1130 nM
same,CC50,"[24]; Homo sapiens, 786-0, read-out: LC50",5540 nM
same,TGI,[25]; A498,1790 nM
same,GI50,"[25]; Homo sapiens, A498",470 nM
same,CC50,"[25]; Homo sapiens, A498, read-out: LC50",4380 nM
same,TGI,[26],2100 nM
same,GI50,[26]; Homo sapiens,820 nM
same,CC50,"[26]; Homo sapiens, read-out: LC50",4770 nM
same,GI50,"[27]; Homo sapiens, RXF 393",260 nM
same,CC50,"[27]; Homo sapiens, RXF 393, read-out: LC50",3600 nM
same,TGI,[27]; RXF393,900 nM
same,GI50,"[28]; Homo sapiens, SN12C",450 nM
same,CC50,"[28]; Homo sapiens, SN12C, read-out: LC50",6750 nM
same,TGI,[28]; SN12c,2060 nM
same,GI50,"[29]; Homo sapiens, UO-31",1670 nM
same,CC50,"[29]; Homo sapiens, UO-31, read-out: LC50",8760 nM
same,TGI,[29]; UO-31,3820 nM
same,TGI,[30]; DU-145,2020 nM
same,GI50,"[30]; Homo sapiens, DU-145",440 nM
same,CC50,"[30]; Homo sapiens, DU-145, read-out: LC50",12400 nM
same,TGI,[31],1530 nM
same,GI50,[31]; Homo sapiens,350 nM
same,GI50,"[32]; Homo sapiens, MDA-MB-231",1380 nM
same,CC50,"[32]; Homo sapiens, MDA-MB-231, read-out: LC50",6780 nM
same,TGI,[32]; MDA-MB-231,3060 nM
same,GI50,"[33]; Homo sapiens, MDA-MB-468",430 nM
same,CC50,"[33]; Homo sapiens, MDA-MB-468, read-out: LC50",7070 nM
same,TGI,[33]; MDA-MB-468,1820 nM
